What was measured:
[1] = target: T1, PTP1B in HEPG2 whole cells (Homo sapiens, UniProt P18031); assay: Labeling of endogenous PTP1B in HEPG2 whole cells; format: cell-based; settings: mass balance on total counts, 5 nM probe
T1 construct: Labeling of Endogenous PTP1B in HEPG2 Cell Lysate; endogenous in cells; host or cells: HepG2 (human hepatoma, ATCC)
T1 sequence (P18031 1-435): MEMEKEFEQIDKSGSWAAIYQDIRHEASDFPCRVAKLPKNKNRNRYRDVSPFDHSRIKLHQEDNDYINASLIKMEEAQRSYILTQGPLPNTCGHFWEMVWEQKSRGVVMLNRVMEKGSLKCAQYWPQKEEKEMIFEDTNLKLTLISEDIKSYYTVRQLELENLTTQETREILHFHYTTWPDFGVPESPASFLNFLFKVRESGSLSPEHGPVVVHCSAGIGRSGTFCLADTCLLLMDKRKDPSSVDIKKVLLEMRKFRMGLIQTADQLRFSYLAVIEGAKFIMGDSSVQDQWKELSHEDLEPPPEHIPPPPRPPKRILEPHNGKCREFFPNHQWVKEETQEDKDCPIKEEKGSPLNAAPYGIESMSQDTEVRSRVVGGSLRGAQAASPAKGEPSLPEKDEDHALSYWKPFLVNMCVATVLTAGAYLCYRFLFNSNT
Protocol: Human hepatoma cells (HepG2) were obtained from American Type Culture Collection and maintained in regular MEM containing 10% FBS and 1% antibiotics at 37° C., 5% CO2. For photoprobe experiments, cells (2×10^4) were grown until 80% confluence in 6-well plates and serum starved for 14 hours by incubating in MEM with 1% antibiotics without FBS.
HEPG2 cells were grown to ˜80% confluency in 6-well dishes. Media was removed and washed twice with Hanks-Hepes buffer (15 mM Hepes). For HepG2 lysate studies, the cells were lysed on ice for 15 minutes using 1 ml lysate buffer (50 mM Tris pH 7.4, 150 mM NaCl, 1% Triton X-100, 5 mM EDTA, 5 mM DTT, Complete™ protease inhibitor tablet). […] The protein concentration of the lysates was determined by the method of Lowry (detergent compatible).
PTP1B was immunoprecipitated from HepG2 cell lysates (1 ml of 1 mg/ml) using 3.5 ug of anti-PTP1B antibody (BDT) overnight at 4° C. with rotation. […] For autoradiogram detection of radioactivity, the gels were dried and exposed to BioMax MS film with an intensifying screen at −80° C. Protein bands were quantified using a scanning densitometer (Bio-Rad).
The compound of Example 1 at various concentrations was incubated with HEPG2 whole cells for 30 min and was irradiated on ice for 15 min. The cells were then lysed, and labeled PTP1B was measured after immunoprecipitation. […]

[2] = Photolysis of the probes in water (time course, quantum yield); format: physicochemical; settings: chemical actinometry; absorbance at 345 and 350 nm for Examples 9 and 1
Protocol: A time course for photolysis of the probes in water was determined by measuring product formation by HPLC-MS. […] Based on the time course of photolysis of an aqueous probe with a 40 W lamp, t1/2 values of about 2 min were measured using the 40 W lamp. When a 450 W lamp was used, the t1/2 was reduced to less than 30 sec.
The quantum yield of the photoprobes was determined from the number of photons absorbed and the number of moles of photolysis product that were formed. The number of photons absorbed was determined by chemical actinometry, using the method of Parker (26). The moles of irradiated product produced over time was measured by measuring the absorbance at 345 and 350 nm for Examples 9 and 1 respectively. The quantum yield was calculated to be 0.83 and 0.74 for Examples 9 and 1 respectively.

cell permeability (share of probe associated with the cell) [1] | quantum yield [2] | Compound
around 10% |  | NC(=O)[C@H](Cc1ccc(C(F)(F)P(=O)(O)O)c(Br)c1)NC(=O)[C@H](Cc1ccc(C(F)(F)P(=O)(O)O)c(Br)c1)NC(=O)c1cc(I)cc(C2(C(F)(F)F)N=N2)c1 [Example 1, Tetraamnionium 3-bromo-4-(difluoro(phosphonato)methyl)-N-(3-iodo-5-(3-(trifluoromethyl)-3H-diaziren-3-yl)benzoyl)-L-phenylalanyl-3-bromo-4-(difluoro(phosphonato)methyl)-L-phenylalaninamide]
 | 0.83 | NC(=O)[C@H](Cc1ccc(C(F)(F)P(=O)(O)O)cc1)NC(=O)[C@H](Cc1ccc(C(F)(F)P(=O)(O)O)cc1)NC(=O)c1cc(I)cc(C2(C(F)(F)F)N=N2)c1 [Example 9, 4-(Difluoro(phosphono)methyl)-N-(3-iodo-5-(3-(trifluoromethyl)-3H-diaziren-3-yl)benzoyl)-L-phenylalanyl-4-(difluoro(phosphono)methyl)-L-phenylalaninamide]
